In patent publication US11731946B2, “Broad spectrum antivirulence, anti-persistence compounds” (priority 2017, dated 2023):

Experiments:
Assay type in all cases: in vivo, mice
[1] = Pharmacokinetics in mouse plasma and lung after single subcutaneous injection; conditions: for stability in vivo (serum concentration): 10 mg/kg subcutaneous, over 24 h
Protocol: FIGS. 1F-1G show pharmacokinetics measured in mouse plasma (FIG. 1F) and lung (FIG. 1G) following a single subcutaneous injection of Compounds 53, 54, or 72 at 10 mg/kg.

PA14 [2] = experiment: Mouse thigh infection model (PA14); conditions: 10 mg/kg SC; CFUs 24 h post-infection
Protocol: Mice were infected with 5×10^5 and 5×10^6 PA14 cells for the thigh and lung infection model respectively. FIGS. 5A-5C: Thigh model: treatment was initiated […] and repeated at 4, 8, 12 and 18 hours. FIG. 5A: monotherapy with Compound 72, 10 mg/kg (P<0.05 Mann Whitney test); FIG. 5B-5C. Combinatorial: Compound 72 (10 mg/kg) plus Ciprofloxacin 1 mg/kg (subtherapeutic dose) (FIG. 5B: P<0.05; Figure C: P>0.05; Mann Whitney test). CFUs were assessed 24 h post-infection in the thigh (FIG. 5A), liver (FIG. 5B) and spleen (FIG. 5C). Compound 72 was administered subcutaneously and ciprofloxacin intraperitoneally (IP). […] Mice were infected with 5×10^6 PA14 cells lung infection model. Compound 54 (10 mg/kg) plus ciprofloxacin 1 mg/kg treatment (subtherapeutic dose) was initiated at 2 h post-infection and repeated at 6, 12, and 18 h post-infection. CFUs were assessed 24 h post-infection in the lung. Compound 54 was administered subcutaneously and ciprofloxacin intraperitoneally (IP).
Thigh infection studies were performed using Compounds 54 and 72.

PA14 [3] = experiment: Acute mouse lung infection model (PA14)

For N#Cc1ccc(NC(=O)CC(=O)Nc2ccc(Br)cc2)cc1 [Compound 54], the “stability in vivo (serum concentration)” value [1] was “stable in vivo”, the “stability in vivo (serum concentration)” value ([1]; listed as D42) was “highly stable in vivo” and the “pharmacokinetics (in words)” value ([1]; mouse, in vivo) was “promising pharmacokinetics”. For the same molecule, the “bacterial CFUs at the site of infection” value (PA14 [2]) was “reduced bacterial CFUs”, the “potentiation of ciprofloxacin in reducing PA cells in mice lungs” value (PA14 [3]; 10 mg/kg compound SC plus ciprofloxacin 1 mg/kg IP, CFUs 24 h post-infection) was “potentiates ciprofloxacin efficacy” and the “recoverable CFUs from infected lungs” value (PA14 [3]; preliminary, intranasal infection, 10 mg/kg compound vs vehicle) was “reduces the recoverable CFUs from infected lungs”.
